Data published in US5635534A, “Aromatic amino-alcohol derivatives having anti-diabetic and anti-obesity properties, their preparation and their therapeutic uses” (Sankyo Company, Limited, priority 1991, dated 1997).
pIC50: −log10 of the molar value. Counter-ions that a name gives are not always drawn. Like-named read-outs stand apart in the source and are kept apart here.

Tests used:
KK male mice = experiment: Hypoglycemic effect during glucose load in mice; type: in vivo, mouse; settings: 1 mg/kg oral, 4 mice; for inhibition in vivo at 1 mg/kg: Mus musculus, po
Procedure: Hypoglycemic effect during glucose load
The hypoglycemic effect of the compounds of the present invention during glucose load in mice was measured as follows.
Three month old KK male mice, each weighing 28 to 30 g, were fasted overnight, and then 1 mg/kg of the compound to be tested or carboxymethylcellulose (CMC) as a control was administered orally. After 60 minutes, 1.2 g/kg of D-glucose was administered subcutaneously. Then, at 60 and 120 minutes after the subcutaneous glucose injection, blood samples were taken, and the glucose levels were determined by means of a glucose analyzer (GL-101, a product of Mitsubishi Kasei, Co.). The hypoglycemic rates (R) of the test compound during the glucose load were calculated according to the following equation: […]
A: Blood glucose level in the group administered CMC
B: Blood glucose level in the group administered a test sample.

[1] = system: male mice of the ddY strain; experiment: Toxicity, oral administration to mice, one week observation; type: in vivo, mouse; settings: 300 mg/kg oral; for survival at the end of the period of observation: groups of 3, one week; for abnormalities which could be attributed to the test compounds: groups of 3, one week observation
Procedure: The test animals employed were male mice of the ddY strain. The animals were employed in groups of 3. The test compound was administered orally to each animal group at a dose of 300 mg/kg body weight. The compounds employed were those prepared as described in Examples 1, 3, 8, 24, 47 and 48.

[2] = target: T1, Bovine lens aldose reductase (Bos taurus, UniProt P16116); experiment: Inhibition of Aldose reductase; type: biochemical; settings: for inhibition at 5 µg/mL: 5 μg/ml
T1 construct: Bovine lens aldose reductase was separated and partially purified; from tissue; host or cells: bovine lens
Procedure: Inhibition of Aldose reductase
Bovine lens aldose reductase was separated and partially purified by the method of S. Hyman and J. H. Kinoshita [J. Biol. Chem., 240, 877 (1965)] and K. Inagaki, I. Miwa and J. Okuda [Arch. Biochem. Biophys., 316, 337 (1982)], and its activity was determined photometrically by the method of Varma et al. [Biochem. Pharmac., 25, 2505 (1976)]. Inhibition of enzyme activity was measured for the compounds of the present invention at a concentration of 5 μg/ml, and the results are shown in the following Table 10.

[3] = 1 h, 60 min after subcutaneous glucose 1.2 g/kg, read-out: Hypoglycemic rate during glucose load, 60 min.
[4] = 2 h, 120 min after subcutaneous glucose 1.2 g/kg, read-out: Hypoglycemic rate during glucose load, 120 min.

SMILES	inhibition in vivo at 1 mg/kg (KK male mice; [3])	inhibition in vivo at 1 mg/kg (KK male mice; [4])	further results
COC(=O)Cc1ccc(OCC(C)NCC(O)c2cccc(C(F)(F)F)c2)cc1 (stereo not shown) [Example 43, 2-[2-(4-Methoxycarbonylmethylphenoxy)-1-methylethyl]amino-1-(3-trifluoromethylphenyl)ethanol]	66.5%	58.6%	
CC(COc1ccc(CO)cc1)NCC(O)c1cccc(Cl)c1 (stereo not shown) [Example 1, 2-[2-(4-Hydroxymethylphenoxy)-1-methylethyl]-amino-1-(3-chlorophenyl)ethanol]			survival at the end of the period of observation [1]: All animals were alive; abnormalities which could be attributed to the test compounds [1]: no abnormalities
COC(=O)Cc1ccc(OCC(C)NCC(O)c2cccc(Cl)c2)cc1 (stereo not shown) [Example 24, 2-[2-(4-Methoxycarbonylmethylphenoxy)-1-methylethyl]amino-1-(3-chloropbenyl)ethanol fumarate]			Hypoglycemic rate during glucose load, 60 min. (KK male mice; 60 min after subcutaneous glucose 1.2 g/kg): 61.4%; Hypoglycemic rate during glucose load, 120 min. (KK male mice; 120 min after subcutaneous glucose 1.2 g/kg): 56.9%
CC(COc1ccc(CCO)cc1)NCC(O)c1cccc(Cl)c1 (stereo not shown) [Example 8, 2-{2-[4-(2-Hydroxyethyl)phenoxy]-1-methylethyl}amino-1-(3-chlorophenyl)ethanol]	56.8%	45.1%	
CC(COc1ccc(CC(=O)O)cc1Cl)NCC(O)c1cccc(Cl)c1 (stereo not shown) [Example 36, 2-[2-(4-Carboxymethyl-2-chlorophenoxy)-1-methylethyl]amino-1-(3-chlorophenyl)ethanol]			pIC50 [2]: 5.14; inhibition at 5 µg/mL [2]: 60.4%
C[C@H](COc1ccc(CC2SC(=O)NC2=O)cc1)NC[C@H](O)c1cccc(Cl)c1 (stereo partly drawn) [Example 48, 5-[4-{2(R)-[2(R)-(3-Chlorophenyl)-2-hydroxyethylamino]propoxy}benzyl]thiazolidine-2,4-dione]			inhibition at 5 µg/mL [2]: 47.5%
COC(=O)C(O)Cc1ccc(OCC(C)NCC(O)c2cccc(Cl)c2)cc1 (stereo not shown) [Example 6, 2-{2-[4-(2-Methoxycarbonyl-2-hydroxyethyl)phenoxy]-1-methylethyl}amino-1-(3-chlorophenyl)ethanol]	43.4%	40.5%	
COC(=O)Cc1ccc(OC[C@@H](C)NC[C@H](O)c2cccc(Cl)c2)cc1.O=C(O)/C=C/C(=O)O [Example 47, 2-[2-(4-Methoxycarbonylmethylphenoxy)-1(R)-methylethyl]amino-1(R)-(3-chlorophenyl)ethanol fumarate]	60.9%	51.5%	survival at the end of the period of observation [1]: All animals were alive; abnormalities which could be attributed to the test compounds [1]: no abnormalities
CC(COc1ccc(CC(=O)NO)cc1Cl)NCC(O)c1cccc(Cl)c1 (stereo not shown) [Example 34, 2-{2-[2-Chloro-4-(N-hydroxycarbamoylmethyl)phenoxy]-1-methylethyl}amino-1-(3-chlorophenyl)ethanol]			pIC50 [2]: 5.22; inhibition at 5 µg/mL [2]: 63.3%
COC(=O)Cc1ccc(OCC(C)NCC(O)c2cc(Cl)cc(Cl)c2)cc1 (stereo not shown) [Example 40, 2-[2-(4-Methoxycarbonylmethylphenoxy)-1-methylethyl]amino-1-(3,5-dichlorophenyl)ethanol]	37.9%	24.5%	
COC(=O)Cc1ccc(OCC(C)NCC(O)c2cccc(Cl)c2)cc1 (stereo not shown) [Example 3, 2-[2-(4-Methoxycarbonylmethylphenoxy)-1-methylethyl]-amino-1-(3-chlorophenyl)ethanol]	67.3%	56.5%	
COC(=O)Cc1ccc(OC[C@@H](C)NC[C@H](O)c2ccccc2)cc1 [Example 27, 2-[2-(4-Methoxycarbonylmethylphenoxy)-1(R)-methylethyl]amino-1(R)-phenylethanol]	68.4%	52.1%	
COC(=O)Cc1ccc(OCC(C)NCC(O)c2cccc(OC)c2)cc1 (stereo not shown) [Example 44, 2-[2-(4-Methoxycarbonylmethylphenoxy)-1-methylethyl]amino-1-(3-methoxyphenyl)ethanol]	38.1%	24.8%	
COC(=O)Cc1ccc(OCC(C)NCC(O)c2cccc(Br)c2)cc1 (stereo not shown) [Example 42, 2-[2-(4-Methoxycarbonylmethylphenoxy)-1-methylethyl]amino-1-(3-bromophenyl)ethanol]	60.9%	57.6%	
COC(=O)Cc1ccc(OCC(C)NCC(O)c2ccc(F)c(Cl)c2)cc1 (stereo not shown) [Example 41, 2-[2-(4-Methoxycarbonylmethylphenoxy)-1-methylethyl]amino-1-(3-chloro-4-fluorophenyl)ethanol]	50.1%	43%	
